Experimental data taken from ChEMBL document CHEMBL3885861, “Open TG-GATES”.

Organism: Rattus norvegicus
Test: Open TG-GATES - Regimen: Daily Repeat
Type: toxicity, organism-based, Sprague-Dawley
Parameters: regimen Daily Repeat, gender Male, age 6 weeks
Conditions: in vivo, po, 0 mg/kg, route gavage, dose level Control; for APTT / Bas / Eos / Fbg / Hb / Ht / Lym / MCH / MCHC / MCV / Mono / Neu / PT / Plat / RBC / Ret / WBC: tissue Blood; for KIDNEY_L / KIDNEY_R / KIDNEY_TOTAL: tissue Kidney; for LIVER: tissue Liver; for A/G / ALP / ALT / AST / BUN / CRE / Ca / Cl / DBIL / GLC / IP / K / LDH / Na / PL / RALB / TBIL / TC / TG / TP / gamma-GTP: tissue Plasma

Compound: CCC1(c2ccccc2)C(=O)NC(=O)NC1=O [PHENOBARBITAL]
- TERMINAL_BW (72 h, time 3 day): 222.1 g
- APTT (72 h, time 3 day): 15.6 s
- Bas (72 h, time 3 day): 0%
- Eos (72 h, time 3 day): 0.6%
- Fbg (72 h, time 3 day): 225 mg/dL
- Hb (72 h, time 3 day): 13.2 g/dL
- Ht (72 h, time 3 day): 39.4%
- Lym (72 h, time 3 day): 76.8%
- MCH (72 h, time 3 day): 22.4 pg
- MCHC (72 h, time 3 day): 33.6%
- MCV (72 h, time 3 day): 66.9 fL
- Mono (72 h, time 3 day): 7.4%
- Neu (72 h, time 3 day): 15.2%
- PT (72 h, time 3 day): 12 s
- Plat (72 h, time 3 day): 126.6 x10_4/uL
- RBC (72 h, time 3 day): 589.6 x10_4/ul
- Ret (72 h, time 3 day): 7.7%
- WBC (72 h, time 3 day): 129.8 x10_2/uL
- KIDNEY_L (72 h, time 3 day): 0.9 g
- KIDNEY_R (72 h, time 3 day): 1 g
- KIDNEY_TOTAL (72 h, time 3 day): 1.9 g
- LIVER (72 h, time 3 day): 11.2 g
- A/G (72 h, time 3 day): 1.6
- ALP (72 h, time 3 day): 912.8 IU/L
- ALT (72 h, time 3 day): 34 IU/L
- AST (72 h, time 3 day): 61.4 IU/L
- BUN (72 h, time 3 day): 16 mg/dL
- CRE (72 h, time 3 day): 0.5 mg/dL
- Ca (72 h, time 3 day): 10.8 mg/dL
- Cl (72 h, time 3 day): 106.6 meq/L
- DBIL (72 h, time 3 day): 0.01 mg/dL
- GLC (72 h, time 3 day): 201.8 mg/dL
- IP (72 h, time 3 day): 7.9 mg/dL
- K (72 h, time 3 day): 4.9 meq/L
- LDH (72 h, time 3 day): 84.2 IU/L
- Na (72 h, time 3 day): 139.4 meq/L
- PL (72 h, time 3 day): 158.6 mg/dL
- RALB (72 h, time 3 day): 3.6 g/dL
- TBIL (72 h, time 3 day): 0.4 mg/dL
- TC (72 h, time 3 day): 80.2 mg/dL
- TG (72 h, time 3 day): 142.6 mg/dL
- TP (72 h, time 3 day): 5.9 g/dL
- gamma-GTP (72 h, time 3 day): 1.8 IU/L
- TERMINAL_BW ([…], time 7 day): 254.1 g
- TERMINAL_BW ([…], time 14 day): 296 g
- TERMINAL_BW ([…], time 28 day): 396.2 g
- APTT ([…], time 7 day): 15.9 s
- Bas ([…], time 7 day): 0%
- Eos ([…], time 7 day): 0.8%
- Fbg ([…], time 7 day): 224.8 mg/dL
- Hb ([…], time 7 day): 14.2 g/dL
- Ht ([…], time 7 day): 42.7%
- Lym ([…], time 7 day): 82.2%
- MCH ([…], time 7 day): 21.9 pg
- MCHC ([…], time 7 day): 33.4%
- MCV ([…], time 7 day): 65.5 fL
- Mono ([…], time 7 day): 6.8%
- Neu ([…], time 7 day): 10.4%
- PT ([…], time 7 day): 11.9 s
- Plat ([…], time 7 day): 110.9 x10_4/uL
- RBC ([…], time 7 day): 652 x10_4/ul
- Ret ([…], time 7 day): 6.1%
- WBC ([…], time 7 day): 125.6 x10_2/uL
- APTT ([…], time 14 day): 16.5 s
- Bas ([…], time 14 day): 0%
- Eos ([…], time 14 day): 0.4%
- Fbg ([…], time 14 day): 241.4 mg/dL
- Hb ([…], time 14 day): 14.7 g/dL
- Ht ([…], time 14 day): 44.1%
- Lym ([…], time 14 day): 88.2%
- MCH ([…], time 14 day): 20.6 pg
- MCHC ([…], time 14 day): 33.4%
- MCV ([…], time 14 day): 61.9 fL
- Mono ([…], time 14 day): 3.6%
- Neu ([…], time 14 day): 7.8%
- PT ([…], time 14 day): 11.6 s
- Plat ([…], time 14 day): 113.2 x10_4/uL
- RBC ([…], time 14 day): 713.2 x10_4/ul
- Ret ([…], time 14 day): 5.1%
- WBC ([…], time 14 day): 153.7 x10_2/uL
- APTT ([…], time 28 day): 17 s
- Bas ([…], time 28 day): 0%
- Eos ([…], time 28 day): 0.8%
- Fbg ([…], time 28 day): 236 mg/dL
- Hb ([…], time 28 day): 14.8 g/dL
- Ht ([…], time 28 day): 44.6%
- Lym ([…], time 28 day): 84.4%
- MCH ([…], time 28 day): 19.3 pg
- MCHC ([…], time 28 day): 33.2%
- MCV ([…], time 28 day): 58.2 fL
- Mono ([…], time 28 day): 5.6%
- Neu ([…], time 28 day): 9.4%
- PT ([…], time 28 day): 12 s
- Plat ([…], time 28 day): 109 x10_4/uL
- RBC ([…], time 28 day): 766 x10_4/ul
- Ret ([…], time 28 day): 2.6%
- WBC ([…], time 28 day): 129.1 x10_2/uL
- KIDNEY_L ([…], time 7 day): 1 g
- KIDNEY_R ([…], time 7 day): 1 g
- KIDNEY_TOTAL ([…], time 7 day): 2.1 g
- KIDNEY_L ([…], time 14 day): 1.1 g
- KIDNEY_R ([…], time 14 day): 1.1 g
- KIDNEY_TOTAL ([…], time 14 day): 2.2 g
- KIDNEY_L ([…], time 28 day): 1.4 g
- KIDNEY_R ([…], time 28 day): 1.4 g
- KIDNEY_TOTAL ([…], time 28 day): 2.8 g
- LIVER ([…], time 7 day): 12.4 g
- LIVER ([…], time 14 day): 13.5 g
- LIVER ([…], time 28 day): 16.7 g
- A/G ([…], time 7 day): 1.5
- ALP ([…], time 7 day): 1114.2 IU/L
- ALT ([…], time 7 day): 32 IU/L
- AST ([…], time 7 day): 62 IU/L
- BUN ([…], time 7 day): 19.2 mg/dL
- CRE ([…], time 7 day): 0.5 mg/dL
- Ca ([…], time 7 day): 10.9 mg/dL
- Cl ([…], time 7 day): 104.6 meq/L
- DBIL ([…], time 7 day): 0.054 mg/dL
- GLC ([…], time 7 day): 206.4 mg/dL
- IP ([…], time 7 day): 7.9 mg/dL
- K ([…], time 7 day): 4.9 meq/L
- LDH ([…], time 7 day): 99.8 IU/L
- Na ([…], time 7 day): 139.4 meq/L
- PL ([…], time 7 day): 158.2 mg/dL
- RALB ([…], time 7 day): 3.5 g/dL
- TBIL ([…], time 7 day): 0.3 mg/dL
- TC ([…], time 7 day): 73 mg/dL
- TG ([…], time 7 day): 150 mg/dL
- TP ([…], time 7 day): 5.9 g/dL
- gamma-GTP ([…], time 7 day): 1.4 IU/L
- A/G ([…], time 14 day): 1.5
- ALP ([…], time 14 day): 764.6 IU/L
- ALT ([…], time 14 day): 31.4 IU/L
- AST ([…], time 14 day): 63.4 IU/L
- BUN ([…], time 14 day): 19 mg/dL
- CRE ([…], time 14 day): 0.6 mg/dL
- Ca ([…], time 14 day): 10.6 mg/dL
- Cl ([…], time 14 day): 105.4 meq/L
- DBIL ([…], time 14 day): 0.002 mg/dL
- GLC ([…], time 14 day): 207.8 mg/dL
- IP ([…], time 14 day): 8.4 mg/dL
- K ([…], time 14 day): 4.5 meq/L
- LDH ([…], time 14 day): 102.4 IU/L
- Na ([…], time 14 day): 141.4 meq/L
- PL ([…], time 14 day): 159.4 mg/dL
- RALB ([…], time 14 day): 3.8 g/dL
- TBIL ([…], time 14 day): 0.2 mg/dL
- TC ([…], time 14 day): 75.4 mg/dL
- TG ([…], time 14 day): 138.6 mg/dL
- TP ([…], time 14 day): 6.3 g/dL
- gamma-GTP ([…], time 14 day): 0.8 IU/L
- A/G ([…], time 28 day): 1.5
- ALP ([…], time 28 day): 596.8 IU/L
- ALT ([…], time 28 day): 29.6 IU/L
- AST ([…], time 28 day): 56.2 IU/L
- BUN ([…], time 28 day): 20 mg/dL
- CRE ([…], time 28 day): 0.4 mg/dL
- Ca ([…], time 28 day): 10.4 mg/dL
- Cl ([…], time 28 day): 106.4 meq/L
- DBIL ([…], time 28 day): 0.006 mg/dL
- GLC ([…], time 28 day): 201 mg/dL
- IP ([…], time 28 day): 8 mg/dL
- K ([…], time 28 day): 4.5 meq/L
- LDH ([…], time 28 day): 86 IU/L
- Na ([…], time 28 day): 140.4 meq/L
- PL ([…], time 28 day): 165.8 mg/dL
- RALB ([…], time 28 day): 3.9 g/dL
- TBIL ([…], time 28 day): 0.3 mg/dL
- TC ([…], time 28 day): 76.4 mg/dL
- TG ([…], time 28 day): 213.2 mg/dL
- TP ([…], time 28 day): 6.5 g/dL
- gamma-GTP ([…], time 28 day): 1.4 IU/L
